Experimental data reported in patent publication US9918472B2, “Animal repellent” (SCENT SCIENCE INTERNATIONAL INC., priority 2010, dated 2018).

Legend:
[1] = system: wild-type mice (O-MACS-Cre); test: Freezing test, quantification of fear reaction due to odor; type: in vivo, mouse; settings: for Freezing time (%): mice, n=8, 20 min observation, value ± standard error, t-test vs 1,3-dioxolane; for freezing-inducing effect at too high a concentration: Example 3, FIG. 4, dilution series up to 1.082 mmol
Procedure: About 5- to 7-month-old littermate wild-type mice (O-MACS-Cre) were placed in the mouse cages set in a draft (one mouse per cage) to perform habituation for 20 min. Similarly, 20 min habituation was performed the next day. On day 3, odor pods containing odorant molecules were placed in the cages in the draft, and the mice were placed in the cages with odor pods. The behaviors of the mice from day 1 to day 3 were video-recorded and the freezing time was analyzed by FreezeFrame system manufactured by NeuroScience Inc. The time during which the mouse was motionless for 2 seconds or longer was measured as a freezing time, and the time of freezing during the 20 min observation time was shown in %. The freezing time on day 2 was shown as control without odor in the data. As the mice used for experiment, male mice were used to avoid abnormality in the olfactory sense due to the sexual cycle. […] The odor pod refers to an apparatus containing filter paper impregnated with odorant and placed in a plastic petri dish with a lid having a hole. In this experiment, 2 MB (2-methylbutyric acid) 45 μL (270.6 μmol) or TMT 35 μL (270.6 μmol) was used as the odorant molecule.
Using various compounds, the freezing test shown in Experimental Example 1 was performed. […] For the experiment, 270.6 μmol of odorant molecules were used. The abbreviations and the formal names of the odorant molecules used are as follows.
The influence of the concentration of the odorant molecule on the effect of inducing a freezing behavior was analyzed. […] The freezing behavior was analyzed by a method similar to that in Example 1. The amount of the odorant molecules used of the both compounds was 270.6 nmol for 0.001, 2.706 μmol for 0.01, 27.06 μmol for 0.1, 270.6 μmol for 1, and 1.082 mmol for 4. The odorant molecule concentration in the gas in the test system was measured by gas chromatography, and the presence of a dependency relationship between the amount of the odorant molecules used for the test and the odorant molecule concentration in the gas in the test system was confirmed.
Using the following test compounds (13 kinds), the freezing test shown in Experimental Example 1 was performed. […] For the experiment, 270.6 μmol of odorant compounds were used.

[2] = system: mice; test: Acclimation test (freezing time on daily odor exposure for 8 days); type: in vivo, mouse
Procedure: About 5- to 7-month-old littermate wild-type mice (O-MACS-Cre) were placed in the mouse cages set in a draft (one mouse per cage) to perform habituation for 20 min. Similarly, 20 min habituation was performed the next day. On day 3, odor pods containing odorant molecules were placed in the cages in the draft, and the mice were placed in the cages with odor pods. The behaviors of the mice from day 1 to day 3 were video-recorded and the freezing time was analyzed by FreezeFrame system manufactured by NeuroScience Inc. The time during which the mouse was motionless for 2 seconds or longer was measured as a freezing time, and the time of freezing during the 20 min observation time was shown in %. The freezing time on day 2 was shown as control without odor in the data. As the mice used for experiment, male mice were used to avoid abnormality in the olfactory sense due to the sexual cycle. Each experiment was performed with n=5. The odor pod refers to an apparatus containing filter paper impregnated with odorant and placed in a plastic petri dish with a lid having a hole. In this experiment, 2 MB (2-methylbutyric acid) 45 μL (270.6 μmol) or TMT 35 μL (270.6 μmol) was used as the odorant molecule.
Acclimation test: By the method of Experimental Example 1, mice (N=8) were forced to smell the test compound (2MT) every day for 8 days, and the freezing time (%) was measured over time. As a control, mice that were forced to learn to feel fear with the smell of anisole by a method including applying an electric shock immediately after smelling anisole (hereinafter to be also referred to as fear learning mice) were used. The aforementioned fear learning mice (N=8) were forced to smell anisole every day for 8 days, and the freezing time (%) was measured over time.

Compound	Freezing time (%) ([1]; Example 4, 270.6 μmol odorant)	also measured
C1COCO1 [1,3-dioxolane, reference compound]		fear reaction of the comparison odorant ([1]; Example 4, odorant used as comparison for the t-test): does not induce a fear reaction
CC1(C)NCCS1 [2,2-dimethylthiazolidine]	29.3 ± 5.2 %	
CC1=NCC(C)S1 (centres unmarked) [2,5-dimethyl-2-thiazoline]	55.9 ± 4.4 %	
Brc1nccs1 [2-bromothiazole]	4.8 ± 1.6 %	
CCc1nccs1 [2-ethylthiazole]	7.3 ± 1.6 %	
CSC1=NCCS1 [2-methylthio-2-thiazoline]	6.2 ± 3.0%	
CC1=NCCS1 [2MT, 2-methyl-2-thiazoline]	49.9 ± 3.0 %	freezing time profile on smelling the odor every day for 8 days ([2]; Example 5, FIG. 5, mice N=8, not conditioned): did not decrease but rather increased; freezing-inducing effect at too high a concentration [1]: decreased effect
CC1CN=CS1 (centres unmarked) [5-methyl-2-thiazoline]	39.6 ± 3.5 %	
CC1CNCS1 (centres unmarked) [5-methylthiazolidine]	4.2 ± 2.7%	
CC1=NC(C)SC1C (centres unmarked) [TMT, 2,4,5-trimethyl-3-thiazoline, reference compound]		freezing-inducing effect at too high a concentration [1]: decreased effect; freezing time compared with 2 MB (putrid odor) ([1]; Experimental Example 1, FIG. 1, mice n=5, 270.6 μmol odorant): longer freezing time
COc1ccccc1 [anisole]		freezing time profile on smelling the odor every day ([2]; Example 5, FIG. 5, fear learning mice, anisole every day for 8 days, N=8): decreased with time; freezing time with anisole the next day ([2]; Example 5, fear learning mice (electric shock after smelling anisole), N=8): not less than 50%
CCN=C=S [ethyl isothiocyanate]	14.0 ± 4.5 %	
CC1(C)CS1 [isobutylene sulfide]	4.3 ± 1.9 %	
C1CSCN1 [thiazolidine]	18.2 ± 5.3 %	
C1CSCCN1 [thiomorpholine]	15.9 ± 2.5 %	
c1ccsc1 [thiophene]	2.7 ± 1.6%	
